Consider nine molecules from patent US4772551A (priority 1985, dated 1988).

One test deals with T-2 reactive monoclonal antibody. Type of test: binding, murine.
Conditions: not given
Consider `CC(=O)OC[C@]12C[C@H](OC(=O)CC(C)C)C(C)=C[C@H]1O[C@@H]1[C@H](OC(C)=O)[C@@H](OC(C)=O)[C@@]2(C)[C@]12CO2` [Acetyl T-2], for which the “50% Inhibition (concentration required to inhibit binding of antibody by 50%)” value (shortened to “50% Inhibition”) worked out at 0.094 µg/mL, the “Minimal Inhibition (concentration required for first significant inhibition of binding of antibody)” value worked out at 0.01 µg/mL and the “cross reaction with T-2 monoclonal antibody” value is “strong cross reaction”.
`CC(=O)OC[C@]12C[C@H](O)C(C)=C[C@H]1O[C@@H]1[C@H](O)[C@@H](OC(C)=O)[C@@]2(C)[C@]12CO2` [Neosolaniol]: the “50% Inhibition” value worked out at 1.6 µg/mL and the “Minimal Inhibition (concentration required for first significant inhibition of binding of antibody)” value is 1.0 µg/mL.
Turning to `CC(=O)OC[C@]12C[C@H](OC(=O)CC(C)C)C(C)=C[C@H]1O[C@@H]1[C@H](OC(=O)CCC(=O)O)[C@@H](OC(C)=O)[C@@]2(C)[C@]12CO2` [T-2HS, T-2-hemisuccinate], the “50% Inhibition” value was found to be 0.072 µg/mL and the “Minimal Inhibition (concentration required for first significant inhibition of binding of antibody)” value was found to be 0.01 µg/mL.
In the same order, the values of `CC(=O)OC[C@]12C[C@H](OC(=O)CC(C)(C)O)C(C)=C[C@H]1O[C@@H]1[C@H](O)[C@@H](OC(C)=O)[C@@]2(C)[C@]12CO2` [3'OH T-2] are 0.018 µg/mL and 0.005 µg/mL.
In the same order, the values of `CC1=C[C@H]2O[C@@H]3[C@H](O)[C@@H](O)[C@](C)([C@@]2(CO)C[C@@H]1OC(=O)CC(C)C)[C@]31CO1` [T-2 triol] are 14.9 µg/mL and 5.0 µg/mL.
In the same order, the values of `CC1=C[C@H]2O[C@@H]3[C@H](O)C[C@](C)([C@@]2(CO)[C@H](O)C1=O)[C@]31CO1` [Deoxynivalanol] are above 1000. ug/ml and above 1000. ug/ml.
As for `CC(=O)OC[C@]12C[C@H](OC(=O)CC(C)(C)O)C(C)=C[C@H]1O[C@@H]1[C@H](O)[C@@H](O)[C@@]2(C)[C@]12CO2` [3'OH HT-2], the “50% Inhibition” value came to 0.100 µg/mL and the “Minimal Inhibition (concentration required for first significant inhibition of binding of antibody)” value is 0.05 µg/mL.
On to `CC(=O)OC[C@]12C[C@H](OC(=O)CC(C)C)C(C)=C[C@H]1O[C@@H]1[C@H](O)[C@@H](O)[C@@]2(C)[C@]12CO2` [HT-2], for which the “50% Inhibition” value was 1.0 µg/mL, the “Minimal Inhibition (concentration required for first significant inhibition of binding of antibody)” value was 0.5 µg/mL, the “cross reaction with T-2 monoclonal antibody” value is reported as “relatively weak cross-reaction” and the “reactivity relative to T-2” value amounted to 2%.

The next test deals with polyclonal antibodies produced to aflatoxin B1 and ochratoxin A. The following applies: cited from earlier work.
As for `C[C@@H]1Cc2c(Cl)cc(C(=O)N[C@@H](Cc3ccccc3)C(=O)O)c(O)c2C(=O)O1` [ochratoxin A], the sensitivity was 5-10 ppb.
